From patent US11999716B2, “WDR5 inhibitors and modulators” (priority 2018, dated 2024)

test system: MV4:11 human cancer cell lines; experiment: Cellular viability / anti-proliferative activity, CellTiter-Glo, 5 day protocol; type: cell-based; details: Homo sapiens, MV4-11, 120 h, MV4:11 cells; 5 day incubation; CellTiter-Glo; mean of minimum two replicates; read-out: GI50 on cellular proliferation of MV4:11 human cancer cell lines
Outline: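 Compounds were tested over 22 two-fold dilutions starting at 30 μM in 0.3% DMSO, with 200 cells per well (7200 cells/mL). Viability was measured by CellTiter-Glo luminescence at day 5.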

SMILES	GI50
Cc1cc([C@H](C)N2CCc3c(cc(Cn4ccn(C)c4=N)cc3-c3cn(C)nc3C)C2=O)ccc1F [Example 143, (S)-5-(1,3-Dimethyl-1H-pyrazol-4-yl)-2-(1-(4-fluoro-3-methylphenyl)ethyl)-7-((2-imino-3-methyl-2,3-dihydro-1H-imidazol-1-yl)methyl)-3,4-dihydroisoquinolin-1(2H)-one]	< 50 nM
COc1cc(CN2CCc3c(cc(Cn4ncnc4C)cc3-c3ccc(F)cc3C)C2=O)cc(OC)c1 [Example 144, 2-(3,5-Dimethoxybenzyl)-5-(4-fluoro-2-methylphenyl)-7-((5-methyl-1H-1,2,4-triazol-1-yl)methyl)-3,4-dihydroisoquinolin-1(2H)-one]	> 938 nM
COc1cc(CN2CCc3c(cc(Cn4cnnc4C)cc3-c3ccc(F)cc3C)C2=O)cc(OC)c1 [Example 145, 2-(3,5-Dimethoxybenzyl)-5-(4-fluoro-2-methylphenyl)-7-((3-methyl-4H-1,2,4-triazol-4-yl)methyl)-3,4-dihydroisoquinolin-1(2H)-one]	> 938 nM
Cc1cc([C@H](C)N2CCc3c(cc(Cn4ccnc4C)cc3-c3cn(C)nc3C)C2=O)ccc1F [Example 146, (S)-5-(1,3-Dimethyl-1H-pyrazol-4-yl)-2-(1-(4-fluoro-3-methylphenyl)ethyl)-7-((2-methyl-1H-imidazol-1-yl)methyl)-3,4-dihydroisoquinolin-1(2H)-one]	< 50 nM
Cn1cc(-c2cc(Cn3ccn(C)c3=N)cc3c2CCN(Cc2cc(C4CC4)nn2C)C3=O)c(C(F)(F)F)n1 [Example 147, 2-((3-Cyclopropyl-1-methyl-1H-pyrazol-5-yl)methyl)-7-((2-imino-3-methyl-2,3-dihydro-1H-imidazol-1-yl)methyl)-5-(1-methyl-3-(trifluoromethyl)-1H-pyrazol-4-yl)-3,4-dihydroisoquinolin-1(2H)-one]	73 nM
Cc1nccn1Cc1cc2c(c(-c3cn(C)nc3C(F)(F)F)c1)CCN(Cc1cc(C3CC3)nn1C)C2=O [Example 148, 2-((3-Cyclopropyl-1-methyl-1H-pyrazol-5-yl)methyl)-7-((2-methyl-1H-imidazol-1-yl)methyl)-5-(1-methyl-3-(trifluoromethyl)-1H-pyrazol-4-yl)-3,4-dihydroisoquinolin-1(2H)-one]	< 50 nM

Other lines, results leading:

GI50	SMILES
< 50 nM	CCc1ccnc(CN2CCc3c(cc(Cn4ccnc4CC)cc3-c3cn(CC)nc3C(F)(F)F)C2=O)c1 [Example 149, 7-((2-Ethyl-1H-imidazol-1-yl)methyl)-5-(1-ethyl-3-(trifluoromethyl)-1H-pyrazol-4-yl)-2-((4-ethylpyridin-2-yl)methyl)-3,4-dihydroisoquinolin-1(2H)-one]
< 50 nM	Cn1cc(-c2cc(Cn3ccoc3=N)cc3c2CCN(Cc2cc(C4CC4)nn2C)C3=O)c(C(F)(F)F)n1 [Example 150, 2-((3-Cyclopropyl-1-methyl-1H-pyrazol-5-yl)methyl)-7-((2-iminooxazol-3(2H)-yl)methyl)-5-(1-methyl-3-(trifluoromethyl)-1H-pyrazol-4-yl)-3,4-dihydroisoquinolin-1(2H)-one]
< 50 nM	CCn1cc(-c2cc(CN3CCSC3=N)cc3c2CCN([C@@H](C)c2cc(OC)ccn2)C3=O)c(C(F)(F)F)n1 [Example 151, (S)-5-(1-Ethyl-3-(trifluoromethyl)-1H-pyrazol-4-yl)-7-((2-iminothiazolidin-3-yl)methyl)-2-(1-(4-methoxypyridin-2-yl)ethyl)-3,4-dihydroisoquinolin-1(2H)-one]
< 50 nM	CCn1cc(-c2cc(Cn3cnn(C)c3=N)cc3c2CCN([C@@H](C)c2cc(OC)ccn2)C3=O)c(C(F)(F)F)n1 [Example 152, (S)-5-(1-ethyl-3-(trifluoromethyl)-1H-pyrazol-4-yl)-7-((5-imino-1-methyl-1,5-dihydro-4H-1,2,4-triazol-4-yl)methyl)-2-(1-(4-methoxypyridin-2-yl)ethyl)-3,4-dihydroisoquinolin-1(2H)-one]

same assay, conditions: MV4:11 cells; 5 day incubation; CellTiter-Glo; mean of minimum two replicates; read-out: GI50 on cellular proliferation of MV4:11 human cancer cell lines

GI50	SMILES
81 nM	Cn1cc(-c2cc(Cn3ccn(C)c3=N)cc3c2CCN(Cc2cc(C4CC4)nn2C)C3=O)c(C(F)(F)F)n1 [Example 147, 2-((3-Cyclopropyl-1-methyl-1H-pyrazol-5-yl)methyl)-7-((2-imino-3-methyl-2,3-dihydro-1H-imidazol-1-yl)methyl)-5-(1-methyl-3-(trifluoromethyl)-1H-pyrazol-4-yl)-3,4-dihydroisoquinolin-1(2H)-one]
